Data from patent publication US10030059B2, “Modulators of gamma-C-cytokine activity” (Bioniz, LLC, priority 2015, dated 2018).
Peptide text beside a SMILES is read from it.

Test system: T-cells in HAM/TSP patient PBMC
Assay: Ex vivo spontaneous T-cell proliferation assay using HAM/TSP peripheral blood
Type: cell-based, human
Conditions: HAM/TSP peripheral blood ex vivo culture
Experimental: Proliferation assays were performed on HAM/TSP patient blood samples with and without the addition of BNZ-γ. These assays evaluated the ability of BNZ-γ to block the function of cytokines, such as IL-2 and IL-15, present in the ex vivo HAM/TSP patient blood culture and prevent spontaneous T-cell proliferation in these samples.
In an ex vivo spontaneous T-cell proliferation assay, PBMC from HAM/TSP patient was cultured at 1×10(6) cells per well of a 96 well plate in RPMI-10% FCS. Increasing concentrations of BNZ-γ peptide were added to each well. As a control, an irrelevant peptide was used in similar fashion. The cells were incubated in a 37° C. CO2 incubator for 3, 4, and 6 days. The amount of 1 μCi of ^3H-thymidine was added to the cells. After an additional 6 hour incubation, cells were harvested their proliferation rate was measured. As indicated in FIG. 4A-FIG. 4D, BNZ-γ peptide inhibits the spontaneous proliferation of T-cells in HAM/TSP culture at a concentration of about 1 μg/ml.
Other immunological markers were additionally measured in this assay. The percentage of the viral specific CD8 cells was measured during the ex vivo culture using viral protein tetramers. The population of CD4+CD25+ cells, a marker of T-cell activation, as well as Ki67 staining, a marker of T-cell proliferation, was monitored in a flow cytometry assay.

With `CC[C@H](C)[C@H](N)C(=O)N[C@@H](CCCCN)C(=O)N[C@@H](CCC(=O)O)C(=O)N[C@@H](Cc1ccccc1)C(=O)N[C@@H](CC(C)C)C(=O)N[C@@H](CCC(N)=O)C(=O)N[C@@H](CCCNC(=N)N)C(=O)N[C@@H](Cc1ccccc1)C(=O)N[C@H](C(=O)N[C@@H](Cc1c[nH]cn1)C(=O)N[C@H](C(=O)N[C@H](C(=O)N[C@@H](CCC(N)=O)C(=O)N[C@@H](CO)C(=O)N[C@H](C(=O)N[C@H](C(=O)N[C@@H](CC(N)=O)C(=O)N[C@H](C(=O)N[C@@H](CO)C(=O)O)[C@@H](C)O)[C@@H](C)CC)[C@@H](C)CC)C(C)C)[C@@H](C)CC)[C@@H](C)CC` [BNZ-γ, I-K-E-F-L-Q-R-F-I-H-I-V-Q-S-I-I-N-T-S] (H-IKEFLQRFIHIVQSIINTS-OH) the “percent of live cells by Guava staining” value was “not impacted”.
